Literature values in publication PMC10667676, “Pharmacokinetics and bioequivalence of sunitinib and Sutent® in Chinese healthy subjects: an open-label, randomized, crossover study” (Frontiers in Pharmacology, 2023).

Key:
[1] = design: method as in Bello and e t al., 2006; details: healthy subjects, high-fat, high-calorie diet, oral 50 mg; ref Bello and e t al., 2006
CYP enzymes = details: ref Zhou and Gallo, 2010; Kassem et al., 2012a

CCN(CC)CCNC(=O)c1c(C)[nH]c(/C=C2\C(=O)Nc3ccc(F)cc32)c1C [Sunitinib]
AUC0-∞ [1]: 1489 (1276–1736) ng*h/mL
AUC0–t [1]: 1476 (1264–1724) ng*h/mL
Cmax [1]: 25.1 (21.1–29.7) ng/mL
Tmax [1]: 8.03 h
t1/2 [1]: 59.1 h
Elimination half-life (healthy subjects' plasma, no reference given): 40 to 60 h
Elimination through the feces, share of total administered dose (primary route of elimination, ref Adams and Leggas, 2007): 61%
Renal excretion, share of total administered dose (ref Adams and Leggas, 2007): 16%
Effect of food consumption on bioavailability (ref Bello and e t al., 2006): unaltered
Inhibition or induction of CYP enzymes (CYP enzymes): unlikely to significantly inhibit or induce
